In the assay the target is T1, folate receptor alpha (FRα) (Homo sapiens, UniProt P15328).
T1 construct: made in house
Briefly: Biolayer interferometry (BLI) binding of folate and folate-peptide conjugates to FRα. To be noted: for kon: pH 7.4, read-out: ka (association rate constant); for koff: pH 7.4, read-out: kd (dissociation rate constant). The procedure: All steps performed for purification and refolding of FRα were carried out according to our previous report. However, some different reagents were used. […] The inclusion bodies were solubilized and purified with 8 M urea instead of 6 M guanidine HCl.
The measurement procedure has been reported previously. […] To eliminate errors from non-specific binding of the analyte (FRα) on the SA biosensor chips, reference data with the same concentrations of analyte were also measured.
The obtained binding data were analyzed using a 1:1 local analysis mode applied with association and dissociation step corrections by the BLItz Pro1.2 software (ForteBio). The reference measurements were subtracted during data analysis to determine ka, kd and KD.
For orientation: In BLI a coated tip is dipped into the sample, and binding shifts an interference pattern.

Setting [1] is: BLI (BLItz), 25 °C, 10 mM PBS pH 7.4, 0.5% BSA, 0.01% Tween 20, ligand immobilized via biotin on streptavidin sensor, 1:1 local analysis, 'Folate' = folate-PEG8-biotin control.

Starred links: 1 amine or outer side, 2 acyl side, 3 side chain; linkers in the order of their positions; H or OH if unused. Non-standard residues stand in square brackets, D forms with d. Residues, ends and D or L forms follow the SMILES beside them. Groups on a side chain read outwards from the residue. *: point of attachment. PEG24 = NCCOCCOCCOCCOCCOCCOCCOCCOCCOCCOCCOCCOCCOCCOCCOCCOCCOCCOCCOCCOCCOCCOCCOCCOCCC(=O)O; X1 = O=C([C@H](Cc1ccc(-n2nnc3c2-c2ccccc2N([*:3])Cc2ccccc2-3)cc1)N[*:1])[*:2]; Pteroyl = Nc1nc2ncc(CNc3ccc(C(=O)*)cc3)nc2c(=O)[nH]1; Biotin = O=C1N[C@H]2[C@H](CS[C@H]2CCCCC(=O)*)N1; γGlu = O=C(O)[C@H](CCC(=O)[*:2])N[*:1]; βAla = NCCC(=O)O

T1 sequence (P15328 25-257): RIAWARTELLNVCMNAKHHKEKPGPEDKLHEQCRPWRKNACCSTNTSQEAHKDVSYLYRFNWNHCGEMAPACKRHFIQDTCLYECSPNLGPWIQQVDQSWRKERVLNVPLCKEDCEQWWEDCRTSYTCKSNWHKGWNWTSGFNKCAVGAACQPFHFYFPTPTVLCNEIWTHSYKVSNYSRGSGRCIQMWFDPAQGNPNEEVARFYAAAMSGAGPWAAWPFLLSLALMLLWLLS

In the case of `C[C@H](NC(=O)[C@H](CCCCN)NC(=O)[C@H](Cc1ccc(-n2nnc3c2-c2ccccc2N(C(=O)CCNC(=O)CC[C@H](NC(=O)c2ccc(NCc4cnc5nc(N)[nH]c(=O)c5n4)cc2)C(=O)O)Cc2ccccc2-3)cc1)NC(=O)[C@H](CCC(=O)O)NC(=O)[C@H](CO)NC(=O)CCOCCOCCOCCOCCOCCOCCOCCOCCOCCOCCOCCOCCOCCOCCOCCOCCOCCOCCOCCOCCOCCOCCOCCOCCNC(=O)CCCC[C@@H]1SC[C@@H]2NC(=O)N[C@@H]21)C(=O)O` [SEZKA] ({Biotin-PEG24}-SE[X1]([βAla-γGlu-Pteroyl])KA-OH; C-terminus assumed), the kon came to 89100 M⁻¹ s⁻¹ and the koff was 8.01e-05 s⁻¹.
Consider `Nc1nc(=O)c2nc(CNc3ccc(C(=O)N[C@@H](CCC(=O)O)C(=O)O)cc3)cnc2[nH]1` [Folate, reference compound], for which, under setting [1], the “ka (association rate constant)” value is 6.74e+06 M⁻¹ s⁻¹ and the “kd (dissociation rate constant)” value was 0.00769 s⁻¹.
For the compound `CC[C@H](C)[C@H](NC(=O)[C@H](Cc1ccc(-n2nnc3c2-c2ccccc2N(C(=O)CCNC(=O)CC[C@H](NC(=O)c2ccc(NCc4cnc5nc(N)[nH]c(=O)c5n4)cc2)C(=O)O)Cc2ccccc2-3)cc1)NC(=O)[C@H](Cc1ccccc1)NC(=O)CNC(=O)CCOCCOCCOCCOCCOCCOCCOCCOCCOCCOCCOCCOCCOCCOCCOCCOCCOCCOCCOCCOCCOCCOCCOCCOCCNC(=O)CCCC[C@@H]1SC[C@@H]2NC(=O)N[C@@H]21)C(=O)N[C@@H](CCC(N)=O)C(=O)O` [GFZIQ] ({Biotin-PEG24}-GF[X1]([βAla-γGlu-Pteroyl])IQ-OH; C-terminus assumed), the kon was 411000 M⁻¹ s⁻¹ and the koff stood at 7.53e-05 s⁻¹.
On to `C[C@H](NC(=O)[C@H](CCCCN)NC(=O)[C@H](Cc1ccc(-n2nnc3c2-c2ccccc2N(C(=O)CCNC(=O)CC[C@H](NC(=O)c2ccc(NCc4cnc5nc(N)[nH]c(=O)c5n4)cc2)C(=O)O)Cc2ccccc2-3)cc1)NC(=O)[C@H](CCC(=O)O)NC(=O)[C@H](CO)NC(=O)[C@H](CC(=O)O)NC(=O)CCOCCOCCOCCOCCOCCOCCOCCOCCOCCOCCOCCOCCOCCOCCOCCOCCOCCOCCOCCOCCOCCOCCOCCOCCNC(=O)CCCC[C@@H]1SC[C@@H]2NC(=O)N[C@@H]21)C(=O)N[C@@H](Cc1ccc(O)cc1)C(=O)O` [DSEZKAY] ({Biotin-PEG24}-DSE[X1]([βAla-γGlu-Pteroyl])KAY-OH; C-terminus assumed), for which the kon stood at 1.1e+06 M⁻¹ s⁻¹ and the koff was 0.000265 s⁻¹. In addition, for the setting “DSEZKAY relative to SEZKA”, the “fold faster association constant” value is 12 fold, the “fold faster dissociation constant” value amounted to 3 fold and the “fold lower KD” value worked out at 4 fold.

(Values after article PMC6539678 (International Journal of Molecular Sciences, 2019).)
